Test results published in US12696901B2, “Pesticidally active heterocyclic derivatives with sulfur containing substituents” (SYNGENTA CROP PROTECTION AG, priority 2020, dated 2026).

Assays:
Type in all cases: in vivo
[1] = tested on: Chilo suppressalis (Striped Rice Stemborer); experiment: Activity against Chilo suppressalis (striped rice stemborer), treated artificial diet; conditions: 144 h, application rate 200 ppm, L2 larvae, 6 days after infestation
Outline: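 Artificial diet treated with aqueous test solutions made from 10,000 ppm DMSO stocks, dried, then infested with L2 larvae, 6-8 per well. Mortality, anti-feeding effect and growth inhibition scored versus untreated samples 6 days after infestation; control counted when any one category exceeds the untreated sample.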

[2] = tested on: Plutella xylostella (Diamond Back Moth); experiment: Activity against Plutella xylostella (diamond back moth), treated artificial diet; conditions: 192 h, application rate 200 ppm, eggs, 8 days after infestation, read-out: effect in at least one of the two categories (mortality or growth inhibition)
Outline: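 Artificial diet treated with aqueous test solutions made from 10,000 ppm DMSO stocks, dried, then infested with Plutella eggs. Mortality and growth inhibition scored against untreated samples 8 days after infestation.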

[3] = tested on: Myzus persicae (Green Peach Aphid); experiment: Activity against Myzus persicae (green peach aphid), systemic activity; conditions: 144 h, test rate 24 ppm, roots of pea seedlings in test solution, 6 days
Protocol: Example B8: Activity Against Myzus persicae (Green Peach Aphid) Systemic Activity
Roots of pea seedlings infested with an aphid population of mixed ages were placed directly into aqueous test solutions prepared from 10,000 ppm DMSO stock solutions. The samples were assessed for mortality 6 days after placing seedlings into test solutions.

[4] = tested on: Diabrotica balteata (Corn Root Worm); experiment: Activity against Diabrotica balteata (corn root worm), sprayed maize sprouts on agar; conditions: 96 h, application rate 200 ppm, L2 larvae, 4 days after infestation, read-out: effect in at least one of the two categories (mortality or growth inhibition)
Protocol: Example B2: Activity Against Diabrotica balteata (Corn Root Worm)
Maize sprouts placed onto an agar layer in 24-well microtiter plates were treated with aqueous test solutions prepared from 10,000 ppm DMSO stock solutions by spraying. After drying, the plates were infested with L2 larvae (6 to 10 per well). The samples were assessed for mortality and growth inhibition in comparison to untreated samples 4 days after infestation.

[5] = tested on: Myzus persicae (Green Peach Aphid); experiment: Activity against Myzus persicae (green peach aphid), feeding/contact activity; conditions: 144 h, application rate 200 ppm, mixed ages, 6 days after infestation
Protocol: Example B6: Activity Against Myzus persicae (Green Peach Aphid) Feeding/Contact Activity
Sunflower leaf discs were placed onto agar in a 24-well microtiter plate and sprayed with aqueous test solutions prepared from 10,000 ppm DMSO stock solutions. After drying, the leaf discs were infested with an aphid population of mixed ages. The samples were assessed for mortality 6 days after infestation.

[6] = tested on: Spodoptera littoralis (Egyptian Cotton Leaf Worm); experiment: Activity against Spodoptera littoralis (Egyptian cotton leaf worm), sprayed cotton leaf discs; conditions: foliar, 72 h, application rate 200 ppm, L1 larvae, 3 days after infestation
Outline: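 Leaf discs on agar were sprayed with aqueous solutions prepared from 10,000 ppm DMSO stock, dried, then infested with five L1 larvae. Mortality, anti-feeding and growth inhibition were scored against untreated discs 3 days after infestation. Control was recorded when any one category exceeded the untreated sample.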

CCS(=O)(=O)c1c(N2Cc3ncc(C(F)(F)F)cc3C2=O)nc2ccc(NC(C)=O)cn12 [Compound P36, N-[3-ethylsulfonyl-2-[5-oxo-3-(trifluoromethyl)-7H-pyrrolo[3,4-b]pyridin-6-yl]imidazo[1,2-a]pyridin-6-yl]acetamide]
≥ 80%: percent control (mortality, anti-feedant effect or growth inhibition) at 200 ppm [1] | percent effect (mortality or growth inhibition) at 200 ppm [2] | mortality at 24 ppm [3] | percent effect (mortality or growth inhibition) at 200 ppm [4] | mortality at 200 ppm [5] | percent control (mortality, anti-feedant effect or growth inhibition) at 200 ppm [6]
